≈ marks a conversion by molar mass, not a printed value. Each block holds one molecule with its values, some of them ahead of it.
Tests used:
Format in all cases: cell-based
[1] = test system: Aspergillus niger ATCC 16404; assay: Antifungal MIC by broth dilution (CLSI M38-A), RPMI 1640 with MOPS; conditions: broth macro-dilution, end point after 48 hours, MIC = 80% inhibition vs growth control (Amphotericin B: complete inhibition); for MIC: Aspergillus niger, ATCC16404
Protocol: (§1) The compounds of Formula 1 were tested for antifungal activity against Candida albicans, Aspergillus niger and Fusarium proliferatum. In vitro evaluation of antifungal activity was performed by determining the minimum inhibitory concentration (MIC) following standard methods (CLSI: Reference method for broth dilution antifungal susceptibility testing of yeasts; Approved standard, second edition M27-A2, 2002; CLSI: Reference method for broth dilution antifungal susceptibility testing of filamentous fungi; Approved standard M38-A, 2002). Anti-fungal susceptibility testing of these compounds of Formula 1 was done by broth dilution method using RPMI 1640 medium with MOPS buffer. Known anti-fungal agents like Fluconazole and Amphotericin-B were used as standards. End points were determined after 48 hours visually and by using spectrophotometer wherever necessary.

[2] = test system: Fusarium proliferatum ATCC 10052; assay: as above; conditions: broth macro-dilution, end point after 48 hours, MIC = 80% inhibition vs growth control (Amphotericin B: complete inhibition); for MIC: Fusarium proliferatum, ATCC10052, read-out: MIC F. proliferatum ATCC 10052
Protocol: as §1

[3] = test system: Candida albicans ATCC 24433; assay: Antifungal MIC by broth dilution (CLSI M27-A2), RPMI 1640 with MOPS; conditions: broth macro-dilution, end point after 48 hours, MIC = 80% inhibition vs growth control (Amphotericin B: complete inhibition); for MIC: Candida albicans, ATCC24433, read-out: MIC C. albicans ATCC 24433
Protocol: as §1

SMILES: CCOC(=O)c1c(NCC(O)(Cn2cncn2)c2ccc(F)cc2F)sc2c1CCC2 (stereo not drawn) [Compound 1g, Ethyl 2-[2-(2,4-difluorophenyl)-2-hydroxy-3-[1,2,4]triazol-1-yl-propylamino]-5,6-dihydro-4H-cyclopenta[b]thiophene-3-carboxylate]
- MIC [1]: > 8 µg/mL
- MIC [2]: > 8 µg/mL
- MIC [3]: 2 µg/mL (≈ 4.46 µM)

SMILES: CCCCCCCCCCc1cc(C(=O)OCC)c(NCC(O)(Cn2cncn2)c2ccc(F)cc2F)s1 (stereo not drawn) [Compound 1e, Ethyl 5-n-decyl-2-[2-(2,4-difluorophenyl)-2-hydroxy-3-[1,2,4]triazol-1-yl-propylamino]-thiophene-3-carboxylate]
- MIC [1]: > 4 µg/mL
- MIC [2]: > 4 µg/mL
- MIC [3]: > 4 µg/mL

SMILES: CCOC(=O)c1cc(C)sc1NCC(O)(Cn1cncn1)c1ccc(F)cc1F (stereo not drawn) [Compound 1a, Ethyl 2-[2-(2,4-difluorophenyl)-2-hydroxy-3-[1,2,4]triazol-1-yl-propylamino]-5-methyl-thiophene-3-carboxylate]
- MIC [1]: > 16 µg/mL
- MIC [2]: > 16 µg/mL
- MIC [3]: 2 µg/mL (≈ 4.73 µM)

SMILES: CCOC(=O)c1c(NCC(O)(Cn2cncn2)c2ccc(F)cc2F)sc2c1CCCC2 (stereo not drawn) [Compound 1h, Ethyl 2-[2-(2,4-difluorophenyl)-2-hydroxy-3-[1,2,4]triazol-1-yl-propylamino]-4,5,6,7-tetrahydro-benzo[b]thiophene-3-carboxylate]
- MIC [1]: > 4 µg/mL
- MIC [2]: > 4 µg/mL
- MIC [3]: 4 µg/mL (≈ 8.65 µM)

SMILES: CCOC(=O)c1c(NCC(O)(Cn2cncn2)c2ccc(F)cc2F)sc2c1CCCCC2 (stereo not drawn) [Compound 1i, Ethyl 2-[2-(2,4-difluorophenyl)-2-hydroxy-3-[1,2,4]triazol-1-yl-propylamino]-5,6,7,8-tetrahydro-4H-cyclohepta[b]thiophene-3-carboxylate]
- MIC [1]: > 8 µg/mL
- MIC [2]: > 8 µg/mL
- MIC [3]: 8 µg/mL (≈ 16.8 µM)

SMILES: CCCCCCCc1cc(C(=O)OCC)c(NCC(O)(Cn2cncn2)c2ccc(F)cc2F)s1 (stereo not drawn) [Compound 1d, Ethyl 2-[2-(2,4-difluorophenyl)-2-hydroxy-3[1,2,4]triazol-1-yl-propylamino]-5-heptyl-thiophene-3-carboxylate]
- MIC [1]: > 8 µg/mL
- MIC [2]: > 8 µg/mL
- MIC [3]: > 8 µg/mL

SMILES: C[C@@H]1[C@H](O)[C@@H](C)/C=C/C=C/C=C/C=C/C=C/C=C/C=C/[C@H](O[C@@H]2O[C@H](C)[C@@H](O)[C@H](N)[C@@H]2O)C[C@@H]2O[C@](O)(C[C@@H](O)C[C@@H](O)[C@H](O)CC[C@@H](O)C[C@@H](O)CC(=O)O[C@H]1C)C[C@H](O)[C@H]2C(=O)O [Amphotericin B, reference compound]
- MIC A. niger ATCC 16404 [1]: 1 µg/mL (≈ 1.08 µM)
- MIC F. proliferatum ATCC 10052 [2]: 2 µg/mL (≈ 2.16 µM)
- MIC C. albicans ATCC 24433 [3]: 0.25 µg/mL (≈ 0.271 µM)

SMILES: CCCCCCc1sc(NCC(O)(Cn2cncn2)c2ccc(F)cc2F)c(C(=O)OCC)c1C (stereo not drawn) [Compound 1j, Ethyl 2-[2-(2,4-difluorophenyl)-2-hydroxy-3-[1,2,4]triazol-1-yl-propylamino]-5-hexyl-4-methyl-thiophene-3-carboxylate]
- MIC [1]: > 2 µg/mL
- MIC [2]: > 2 µg/mL
- MIC [3]: > 2 µg/mL

SMILES: CCCc1cc(C(=O)OCC)c(NCC(O)(Cn2cncn2)c2ccc(F)cc2F)s1 (stereo not drawn) [Compound 1c, Ethyl 2-[2-(2,4-difluorophenyl)-2-hydroxy-3-[1,2,4]triazol-1-yl-propylamino]-5-propyl-thiophene-3-carboxylate]
- MIC [1]: > 16 µg/mL
- MIC [2]: > 16 µg/mL
- MIC [3]: 2 µg/mL (≈ 4.44 µM)

SMILES: CCOC(=O)c1cc(CC)sc1NCC(O)(Cn1cncn1)c1ccc(F)cc1F (stereo not drawn) [Compound 1b, Ethyl 2-[2-(2,4-difluorophenyl)-2-hydroxy-3-[1,2,4]triazol-1-yl-propylamino]-5-ethyl-thiophene-3-carboxylate]
- MIC [1]: > 4 µg/mL
- MIC [2]: > 4 µg/mL
- MIC [3]: 2 µg/mL (≈ 4.58 µM)

SMILES: CCOC(=O)c1cc(CCCOCc2ccccc2)sc1NCC(O)(Cn1cncn1)c1ccc(F)cc1F (stereo not drawn) [Compound 1f, Ethyl 5-(3-benzyloxypropyl)-2-[2-(2,4-difluorophenyl)-2-hydroxy-3-[1,2,4]triazol-1-yl-propylamino]-thiophene-3-carboxylate]
- MIC [1]: > 4 µg/mL
- MIC [2]: > 4 µg/mL
- MIC [3]: > 4 µg/mL

The remaining lines, values ahead:

- MIC [1]: > 32 µg/mL
- MIC [2]: > 32 µg/mL
- MIC [3]: 0.12 µg/mL (≈ 0.297 µM)
SMILES: CCCc1cc(C#N)c(NCC(O)(Cn2cncn2)c2ccc(F)cc2F)s1 (stereo not drawn) [Compound 1m, 2-[2-(2,4-Difluorophenyl)-2-hydroxy-3-[1,2,4]triazol-1-yl-propylamino]-5-propyl-thiophene-3-carbonitrile]

- MIC [1]: > 16 µg/mL
- MIC [2]: > 16 µg/mL
- MIC [3]: 0.25 µg/mL (≈ 0.642 µM)
SMILES: CCc1cc(C#N)c(NCC(O)(Cn2cncn2)c2ccc(F)cc2F)s1 (stereo not drawn) [Compound 1l, 2-[2-(2,4-Difluorophenyl)-2-hydroxy-3-[1,2,4]triazol-1-yl-propylamino]-5-ethyl-thiophene-3-carbonitrile]

- MIC [1]: > 16 µg/mL
- MIC [2]: > 16 µg/mL
- MIC [3]: 0.5 µg/mL (≈ 1.25 µM)
SMILES: N#Cc1c(NCC(O)(Cn2cncn2)c2ccc(F)cc2F)sc2c1CCC2 (stereo not drawn) [Compound 1o, 2-[2-(2,4-Difluorophenyl)-2-hydroxy-3-[1,2,4]triazol-1-yl-propylamino]-5,6-dihydro-4H-cyclopenta[b]thiophene-3-carbonitrile]

- MIC [1]: 128 µg/mL (≈ 418 µM)
- MIC [2]: > 128 µg/mL
- MIC [3]: 1 µg/mL (≈ 3.27 µM)
SMILES: OC(Cn1cncn1)(Cn1cncn1)c1ccc(F)cc1F [Fluconazole]

- MIC [1]: > 4 µg/mL
- MIC [2]: > 4 µg/mL
- MIC [3]: 0.25 µg/mL (≈ 0.579 µM)
SMILES: CCCCCc1cc(C#N)c(NCC(O)(Cn2cncn2)c2ccc(F)cc2F)s1 (stereo not drawn) [Compound 1n, 2-[2-(2,4-Difluorophenyl)-2-hydroxy-3-[1,2,4]triazol-1-yl-propylamino]-5-pentyl-thiophene-3-carbonitrile]

- MIC [1]: > 32 µg/mL
- MIC [2]: > 32 µg/mL
- MIC [3]: 0.5 µg/mL (≈ 1.33 µM)
SMILES: Cc1cc(C#N)c(NCC(O)(Cn2cncn2)c2ccc(F)cc2F)s1 (stereo not drawn) [Compound 1k, 2-[2-(2,4-Difluorophenyl)-2-hydroxy-3-[1,2,4]triazol-1-yl-propylamino]-5-methyl-thiophene-3-carbonitrile]
